In patent publication US20230146675A1, “PYRIMIDO[5,4-d]PYRIMIDINE DERIVATIVES AS ENT INHIBITORS FOR THE TREATMENT OF CANCERS, AND COMBINATION THEREOF WITH ADENOSINE RECEPTOR ANTAGONISTS” (ITEOS BELGIUM SA, priority 2020, published 2023):

biological target: T1, human ENT1 (Homo sapiens, UniProt Q99808); test: ENT1 binding assay (competition with Sahenta-DY647 on JAR cells); parameters: JAR cells expressing ENT1 were bought from ATCC; host or cells: JAR cells; conditions: binned IC50
T1 sequence (Q99808 1-456): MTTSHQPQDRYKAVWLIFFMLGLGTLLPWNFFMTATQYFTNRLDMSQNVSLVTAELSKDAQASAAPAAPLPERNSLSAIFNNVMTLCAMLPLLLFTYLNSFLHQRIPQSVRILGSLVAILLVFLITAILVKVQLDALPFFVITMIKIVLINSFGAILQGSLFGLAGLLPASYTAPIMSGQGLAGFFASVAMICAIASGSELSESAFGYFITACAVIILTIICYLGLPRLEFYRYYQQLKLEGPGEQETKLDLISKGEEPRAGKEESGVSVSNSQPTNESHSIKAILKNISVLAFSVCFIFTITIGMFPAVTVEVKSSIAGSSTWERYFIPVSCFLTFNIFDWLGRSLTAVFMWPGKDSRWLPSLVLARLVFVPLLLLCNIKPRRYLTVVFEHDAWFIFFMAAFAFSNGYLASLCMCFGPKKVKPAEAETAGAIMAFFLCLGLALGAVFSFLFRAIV
How it was run: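 JAR cells were incubated with test compounds and the fluorescent ligand Sahenta-DY647 in competition. Plates were washed twice by centrifugation (4 min, 400 rcf, 4 °C). Binding potency was derived from the final fluorescence.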

Question: How did the IC50 turn out when COCCN(CCOC)c1nc(N2CCC(F)(F)CC2)c2nc(N(CCOC)CCOC)nc(N3CCC(OC)CC3)c2n1 [Compound 200, 4-(4,4-difluoropiperidin-1-yl)-N2,N2,N6,N6-tetrakis(2-methoxyethyl)-8-(4-methoxypiperidin-1-yl)pyrimido[5,4-d]pyrimidine-2,6-diamine] was run?
Answer: The IC50 was under 100 nM.

Question: With COCCN(CCO)c1nc(N2CCC(OC)CC2)c2nc(N(CCOC)CCOC)nc(N3CCC(OC)CC3)c2n1 [Compound 34, 2-((6-(bis(2-methoxyethyl)amino)-4,8-bis(4-methoxypiperidin-1-yl)pyrimido[5,4-d]pyrimidin-2-yl)(2-methoxyethyl)amino)ethanol] as the molecule, how does the IC50 read?
Answer: The IC50 was 500 to 1000 nM.

Question: Which IC50 does the source give for COCCN(CCOC)c1nc(N2CCC(OC)CC2)c2nc(N(CCOC)CCOC)nc(NCCc3cnc[nH]3)c2n1 [Compound 95, N4-(2-(1H-imidazol-5-yl)ethyl)-N2,N2,N6,N6-tetrakis(2-methoxyethyl)-8-(4-methoxypiperidin-1-yl)pyrimido[5,4-d]pyrimidine-2,4,6-triamine] here?
Answer: The IC50 was 500 to 1000 nM.

Question: With COCCN(CCOC)c1nc(N2CC[C@@H](O)C2)c2nc(N(CCOC)CCOC)nc(N3CCC(OC)CC3)c2n1 [Compound 93, (R)-1-(2,6-bis(bis(2-methoxyethyl)amino)-8-(4-methoxypiperidin-1-yl)pyrimido[5,4-d]pyrimidin-4-yl)pyrrolidin-3-ol] as the molecule, how does the IC50 read?
Answer: Its IC50 is 500 to 1000 nM.

Question: For COCCN(CCOC)c1nc(N2CCN(c3ncn(C)n3)CC2)c2nc(N(CCOC)CCOC)nc(NCc3ccc(F)c(C#N)c3)c2n1 [Compound 225, 5-(((2,6-bis(bis(2-methoxyethyl)amino)-8-(4-(1-methyl-1H-1,2,4-triazol-3-yl)piperazin-1-yl)pyrimido[5,4-d]pyrimidin-4-yl)amino)methyl)-2-fluorobenzonitrile], which IC50 is on record?
Answer: Its IC50 is under 100 nM.

Question: How did the IC50 turn out when COCCN(CCOC)c1nc(N2CCN(C)C(=O)C2)c2nc(N(CCOC)CCOC)nc(N3CCS(=O)(=O)CC3)c2n1 [Compound 188, 4-(2,6-bis(bis(2-methoxyethyl)amino)-8-(1,1-dioxidothiomorpholino)pyrimido[5,4-d]pyrimidin-4-yl)-1-methylpiperazin-2-one] was run?
Answer: Its IC50 is 100 to 500 nM.

Question: With COCCN(CCOC)c1nc(N2CCN(c3ncn(C)n3)CC2)c2nc(N(CCOC)CCOC)nc(NCc3ccc(F)c(F)c3)c2n1 [Compound 227, N4-(3,4-difluorobenzyl)-N2,N2,N6,N6-tetrakis(2-methoxyethyl)-8-(4-(1-methyl-1H-1,2,4-triazol-3-yl)piperazin-1-yl)pyrimido[5,4-d]pyrimidine-2,4,6-triamine] as the molecule, how does the IC50 read?
Answer: Its IC50 is under 100 nM.

Question: With COCCN(CCOC)c1nc(N2CC(CO)C2)c2nc(N(CCOC)CCOC)nc(N3CCC(OC)CC3)c2n1 [Compound 92, (1-(2,6-bis(bis(2-methoxyethyl)amino)-8-(4-methoxypiperidin-1-yl)pyrimido[5,4-d]pyrimidin-4-yl)azetidin-3-yl)methanol] as the molecule, how does the IC50 read?
Answer: The IC50 was 100 to 500 nM.

Question: With COCCN(CCOC)c1nc(N2CC(C)(C)C2)c2nc(N(CCOC)CCOC)nc(N3CCC(OC)CC3)c2n1 [Compound 100, 4-(3,3-dimethylazetidin-1-yl)-N2,N2,N6,N6-tetrakis(2-methoxyethyl)-8-(4-methoxypiperidin-1-yl)pyrimido[5,4-d]pyrimidine-2,6-diamine] as the molecule, how does the IC50 read?
Answer: The IC50 was 100 to 500 nM.

Question: How did the IC50 turn out when COCCN(CCOC)c1nc(N2CCN(C)C(=O)C2)c2nc(N3CCn4ncnc4C3)nc(N3CCC(OC)CC3)c2n1 [Compound 283, 4-(2-(bis(2-methoxyethyl)amino)-6-(5,6-dihydro-[1,2,4]triazolo[1,5-a]pyrazin-7(8H)-yl)-8-(4-methoxypiperidin-1-yl)pyrimido[5,4-d]pyrimidin-4-yl)-1-methylpiperazin-2-one] was run?
Answer: Its IC50 is 500 to 1000 nM.

Question: With COCCN(CCOC)c1nc(N2CCN(c3nccs3)CC2)c2nc(N(CCO)CCO)nc(N3CCCCC3)c2n1 [Compound 38, 2,2′-((6-(bis(2-methoxyethyl)amino)-4-(piperidin-1-yl)-8-(4-(thiazol-2-yl)piperazin-1-yl)pyrimido[5,4-d]pyrimidin-2-yl)azanediyl)diethanol] as the molecule, how does the IC50 read?
Answer: The IC50 was 100 to 500 nM.

Question: With COCCN(CCOC)c1nc(N2CCC(CO)C2)c2nc(N(CCOC)CCOC)nc(N3CCC(OC)CC3)c2n1 (stereo not shown) [Compound 136, (1-(2,6-bis(bis(2-methoxyethyl)amino)-8-(4-methoxypiperidin-1-yl)pyrimido[5,4-d]pyrimidin-4-yl)pyrrolidin-3-yl)methanol] as the molecule, how does the IC50 read?
Answer: Its IC50 is under 100 nM.

Question: COCCN(CCOC)c1nc(N2CCC(F)C2)c2nc(N(CCOC)CCOC)nc(N3CCC(OC)CC3)c2n1 (stereo not shown) [Compound 104, 4-(3-fluoropyrrolidin-1-yl)-N2,N2,N6,N6-tetrakis(2-methoxyethyl)-8-(4-methoxypiperidin-1-yl)pyrimido[5,4-d]pyrimidine-2,6-diamine] was tested. Which IC50 did it give?
Answer: The IC50 was 100 to 500 nM.

Question: COCCN(CCOC)c1nc(N2CCn3nccc3C2)c2nc(N(CCOC)CCOC)nc(N3CCN(C)C(=O)C3)c2n1 [Compound 260, 4-(2,6-bis(bis(2-methoxyethyl)amino)-8-(6,7-dihydropyrazolo[1,5-a]pyrazin-5(4H)-yl)pyrimido[5,4-d]pyrimidin-4-yl)-1-methylpiperazin-2-one] was tested. Which IC50 did it give?
Answer: The IC50 was under 100 nM.

Question: How did the IC50 turn out when CCN(CCN1CCCC1)c1nc(N2CCN(C)C(=O)C2)c2nc(N(CCOC)Cc3cc(OC)c(OC)c(OC)c3)nc(N3CCC(OC)CC3)c2n1 [Compound 300, 4-(2-(ethyl(2-(pyrrolidin-1-yl)ethyl)amino)-6-((2-methoxyethyl)(3,4,5-trimethoxybenzyl)amino)-8-(4-methoxypiperidin-1-yl)pyrimido[5,4-d]pyrimidin-4-yl)-1-methylpiperazin-2-one] was run?
Answer: Its IC50 is 100 to 500 nM.

Question: For COCCN(CCOC)c1nc(N2CCN(C)C(=O)C2)c2nc(N3CCN(C(C)=O)CC3)nc(N3CCC(OC)CC3)c2n1 [Compound 281, 4-(6-(4-acetylpiperazin-1-yl)-2-(bis(2-methoxyethyl)amino)-8-(4-methoxypiperidin-1-yl)pyrimido[5,4-d]pyrimidin-4-yl)-1-methylpiperazin-2-one], which IC50 is on record?
Answer: The IC50 was 500 to 1000 nM.

Question: For COCCN(CCOC)c1nc(N2CCC(OC)CC2)c2nc(N(CCOC)CCOC)nc(NCc3ccc(C(F)(F)F)nc3)c2n1 [Compound 53, N2,N2,N6,N6-tetrakis(2-methoxyethyl)-8-(4-methoxypiperidin-1-yl)-N4-((6-(trifluoromethyl)pyridin-3-yl)methyl)pyrimido[5,4-d]pyrimidine-2,4,6-triamine], which IC50 is on record?
Answer: Its IC50 is 500 to 1000 nM.

Question: Which IC50 does the source give for COCCN(Cc1ccc(OC)c(OC)c1OC)c1nc(N2CCN(C)C(=O)C2)c2nc(N(CCO)CCO)nc(N3CCC(OC)CC3)c2n1 [Compound 305, 4-(6-(bis(2-hydroxyethyl)amino)-2-((2-methoxyethyl)(2,3,4-trimethoxybenzyl)amino)-8-(4-methoxypiperidin-1-yl)pyrimido[5,4-d]pyrimidin-4-yl)-1-methylpiperazin-2-one] here?
Answer: Its IC50 is under 100 nM.

Question: Which IC50 does the source give for COCCN(CCOC)c1nc(N2CCC(C(N)=O)CC2)c2nc(N(CCOC)CCOC)nc(N3CCC(OC)CC3)c2n1 [Compound 75, 1-(2,6-bis(bis(2-methoxyethyl)amino)-8-(4-methoxypiperidin-1-yl)pyrimido[5,4-d]pyrimidin-4-yl)piperidine-4-carboxamide] here?
Answer: The IC50 was 100 to 500 nM.

Question: How did the IC50 turn out when COCCN(CCOC)c1nc(N2CCC(OC)C2)c2nc(N(CCOC)CCOC)nc(N3CCC(OC)CC3)c2n1 (stereo not shown) [Compound 80, N2,N2,N6,N6-tetrakis(2-methoxyethyl)-4-(4-methoxypiperidin-1-yl)-8-(3-methoxypyrrolidin-1-yl)pyrimido[5,4-d]pyrimidine-2,6-diamine] was run?
Answer: Its IC50 is 100 to 500 nM.

Question: With COCCN(CCOC)c1nc(N2CCC(OC)CC2)c2nc(N(CCOC)CCOC)nc(NCc3cccc(-c4ncco4)c3)c2n1 [Compound 151, N2,N2,N6,N6-tetrakis(2-methoxyethyl)-8-(4-methoxypiperidin-1-yl)-N4-(3-(oxazol-2-yl)benzyl)pyrimido[5,4-d]pyrimidine-2,4,6-triamine] as the molecule, how does the IC50 read?
Answer: The IC50 was 100 to 500 nM.

Question: Which IC50 does the source give for COCCN(Cc1cc(F)c(C(=O)O)c(F)c1)c1nc(N2CCN(C)C(=O)C2)c2nc(N(CCOC)CCOC)nc(N3CCC(OC)CC3)c2n1 [Compound 340, 4-(((6-(bis(2-methoxyethyl)amino)-8-(4-methoxypiperidin-1-yl)-4-(4-methyl-3-oxopiperazin-1-yl)pyrimido[5,4-d]pyrimidin-2-yl)(2-methoxyethyl)amino)methyl)-2,6-difluorobenzoic acid] here?
Answer: The IC50 was under 100 nM.

Question: COCCN(CCOC)c1nc(N2CCC(OC)CC2)c2nc(N(CCOC)CCOC)nc(OCc3ccc(Cl)c(Cl)c3)c2n1 [Compound 154, 4-((3,4-dichlorobenzyl)oxy)-N2,N2,N6,N6-tetrakis(2-methoxyethyl)-8-(4-methoxypiperidin-1-yl)pyrimido[5,4-d]pyrimidine-2,6-diamine] was tested. Which IC50 did it give?
Answer: Its IC50 is under 100 nM.

Question: With COCCN(CCOC)c1nc(N2CCC(OC)CC2)c2nc(N(CCOC)CCOC)nc(N(C)Cc3ccncc3)c2n1 [Compound 82, N2,N2,N6,N6-tetrakis(2-methoxyethyl)-8-(4-methoxypiperidin-1-yl)-N4-methyl-N4-(pyridin-4-ylmethyl)pyrimido[5,4-d]pyrimidine-2,4,6-triamine] as the molecule, how does the IC50 read?
Answer: Its IC50 is 100 to 500 nM.

Question: COCCN(CCOC)c1nc(N2CC(F)C2)c2nc(N(CCOC)CCOC)nc(N3CCC(OC)CC3)c2n1 [Compound 99, 4-(3-fluoroazetidin-1-yl)-N2,N2,N6,N6-tetrakis(2-methoxyethyl)-8-(4-methoxypiperidin-1-yl)pyrimido[5,4-d]pyrimidine-2,6-diamine] was tested. Which IC50 did it give?
Answer: The IC50 was 100 to 500 nM.
